Experimental data from patent publication US20240299446A1 (priority 2023, published 2024).
Marks after values point to notes of the source that are not given here.

What was measured:
ovariectomy (OVX) rats [1] = test: Change in weight of organs in ovariectomized rats; format: in vivo, Sprague-Dawley rats; conditions: OVX rats, treatment for 12 weeks after ovariectomy; mean ± SD, 5 rats
Procedure: 12 week old female SPF Sprague-Dawley rats (body weight: 250 g; n=15) were purchased from the Korean Laboratory Animals Center (Eumseong, South Korea). Breeding conditions were as follows: temperature, 23+3° C.; relative humidity, 55+10%; lighting time, 12 hours (08:00-20:00); ventilation frequency, 10-20 changes/h; illumination, 150-300 lux. The temperature and humidity were measured using a hygrometer in units of time, and there were no variables that could affect the experimental results. The animals were fed normal rodent feed and purified water.
The experimental animals were randomly divided into three groups. After adaptation, bilateral laparotomy (sham) or bilateral ovariectomy (OVX) was performed on the rats.
Changes in the body weight and feeding and water intake were measured at a regular interval.

ovariectomy (OVX) rats [2] = test: Hematological analysis in ovariectomized rats; format: in vivo, Sprague-Dawley rats; conditions: blood at 12 weeks post-surgery; mean ± SD, 5 rats
Procedure: Blood samples were collected at 12 weeks post-surgery.
Hematological experiments were performed using T-540 Coulter Counter (Coulter Electronics Inc., Hialeah, USA) and ADVIA 120 Hematology System (Bayer Healthcare LLC, Tarrytown, USA). White blood cells (WBCs), differential leukocyte counts, hematocrit, red blood cells (RBCs), mean corpuscular volume (MCV), mean corpuscular hemoglobin (MCH), mean corpuscular hemoglobin concentration (MCHC), and platelet count were subjected to analysis, respectively.

ovariectomy (OVX) rats [3] = test: Blood markers  (17β-estradiol, osteocalcin, CTx) in ovariectomized rats; format: in vivo, Sprague-Dawley rats
Procedure: Osteocalcin levels were measured using a sandwich ELISA kit (Biomedical Technologies Inc., Stoughton, USA), while CTx levels were measured using a serum RatLaps ELISA kit (IDS Inc., Fountain Hills, USA).

ovariectomy (OVX) rats [4] = test: Femur bone mineral density (DEXA), breaking force and mineral content in ovariectomized rats; format: in vivo, Sprague-Dawley rats
Procedure: Using dual energy X-ray absorptionmetry (DEXA; Prodigy Advance, Donga imaging, Korea), the bone mineral density (BMD) of the femur was measured. Immediately after BMD measurement, the femur was subjected to mechanical test at room temperature using a material testing machine (MZ500D; Maruto, Tokyo, Japan). For stabilization, the mid-diaphysis of the thigh was placed on two supports at an interval of 4 mm on a test device. A three-point bending test was performed in front and rear directions at the midpoint between the two supports. Breaking force was measured using software (CTR win, Ver. 1.05) to measure bone strength. […] Then, the thigh was placed at 800° C. for 16 hours, and the weight of the ash was measured. […] Calcium and phosphorus contents were measured using an atomic absorption spectrophotometer (PerkinElmer; A Analyst 100 Spectrophotometer, Boston, USA).

[5] = tested on: human colo 205 rectal cancer cells; test: Rectal cancer animal experiment, Colo205 xenograft model; format: in vivo
Procedure: Using human colo 205 rectal cancer cells as xenograft model, clinical experiments were performed with adenocarcinoma nude mice for 28 days. In this regard, the experimental method and usage are shown in Table 8 (Protocol Design for the Colo205-e347 Study) and Table 9 (Final treatment regimen at completion of the study) below.

ovariectomy (OVX) rats [6] = test: Blood markers  (17β-estradiol, osteocalcin, CTx) in ovariectomized rats; format: in vivo, Sprague-Dawley rats; remark: listed apart in the source
ovariectomy (OVX) rats [7] = test: Blood biochemical analysis in ovariectomized rats
Procedure: Blood samples were collected at 12 weeks post-surgery. Animals were deprived of food for 16 hours and then anesthetized prior to blood sampling (Zoletile 50, Virbac, Korea). 0.5 mL of blood was collected from the abdominal artery and stored at 4° C. in a refrigerator.
A portion of the blood was used for hematological experiments, and the remaining blood was centrifuged at 3,000 rpm for 10 minutes to obtain serum. The serum was used for blood biochemical experiments and bone metabolism markers 17β-estradiol, osteocalcin and CTx analysis.
The parameters measured for blood biochemical analysis (Ciba-Corning 644 Na/K/Cl Analyzer, Ciba-Corning, Medfield, USA) were as follows: alanine aminotransferase (ALT), aspartate aminotransferase (AST), alkaline phosphatase (ALP), blood urea nitrogen (BUN), glucose, triglycerides (TG), total cholesterol (TC), high-density lipoproteins (HDL), low-density lipoproteins (LDL), total proteins (TP), albumin, calcium and phosphorus.

[8] = OVX rats, increased after ovariectomy
[9] = serum at 12 weeks post-surgery, mean ± SD, 5 rats

Sigma Anti-bonding Molecule Calcium Carbonate [SAC, reference compound]
Adrenal gland Left weight (ovariectomy (OVX) rats [1]): 0.0094 ± 0.0014 g
Adrenal gland Right weight (ovariectomy (OVX) rats [1]): 0.0094 ± 0.0014 g
Body weight (ovariectomy (OVX) rats [1]): 371.36 ± 9.97 g
Brain weight (ovariectomy (OVX) rats [1]): 0.5526 ± 0.02
Femur Left weight (ovariectomy (OVX) rats [1]): 0.2935 ± 0.02 g
Femur Right weight (ovariectomy (OVX) rats [1]): 0.2902 ± 0.02 g
Kidney: Left weight (ovariectomy (OVX) rats [1]): 0.2687 ± 0.01 g
Kidney: Right weight (ovariectomy (OVX) rats [1]): 0.2626 ± 0.02 g
Liver weight (ovariectomy (OVX) rats [1]): 2.1820 ± 0.15 g
Pituitary weight (ovariectomy (OVX) rats [1]): 4.2 ± 1 mg
Spleen weight (ovariectomy (OVX) rats [1]): 0.1856 ± 0.02 g
Uterus weight (ovariectomy (OVX) rats [1]): 0.0444 ± 0.02 g
Vagina weight (ovariectomy (OVX) rats [1]): 0.0575 ± 0.02 g
Basophils (ovariectomy (OVX) rats [2]): 0.02 ± 0.04 9%
Eosinophils (ovariectomy (OVX) rats [2]): 5.04 ± 3.88%
Hematocrit (ovariectomy (OVX) rats [2]): 43.94 ± 2.18%
Lymphocytes (ovariectomy (OVX) rats [2]): 70.36 ± 8.78%
Mean corpuscular hemoglobin (ovariectomy (OVX) rats [2]): 30.50 ± 0.75 pg
Mean corpuscular hemoglobin concentration (ovariectomy (OVX) rats [2]): 57.14 ± 0.76 g/dL
Mean corpuscular volume (ovariectomy (OVX) rats [2]): 53.44 ± 1.24 fL
Monocytes (ovariectomy (OVX) rats [2]): 2.50 ± 1.44%
Neutrophils (ovariectomy (OVX) rats [2]): 21.21 ± 6.19%
Platelet (ovariectomy (OVX) rats [2]): 1297.0 ± 91.27 10^3/mm^3
Red blood cell (ovariectomy (OVX) rats [2]): 8.23 ± 0.55 10^6/µL
White blood cell (ovariectomy (OVX) rats [2]): 4.84 ± 1.17 10^3/μl
C-terminal telopeptide / CTx (ovariectomy (OVX) rats [3]; [8]): quite reduced
osteocalcin (ovariectomy (OVX) rats [3]; [8]): considerably reduced
C-terminal telopeptide (ovariectomy (OVX) rats [3]; serum CTx, 12 weeks after ovariectomy, mean ± SD, 5 rats): 4.360 ± 0.495^a ng/ml
osteocalcin (ovariectomy (OVX) rats [3]; serum, 12 weeks after ovariectomy, mean ± SD, 5 rats): 3.558 ± 0.154^ac ng/mL
calcium (ovariectomy (OVX) rats [4]; femur ash, reduced by ovariectomy): not significantly different from the Sham group
BMD (ovariectomy (OVX) rats [4]; femur, DEXA, treatment for 12 weeks after ovariectomy, mean ± SD, 5 rats): 0.228 ± 0.012 g/cm²
Mean BW Nadir ([5]; lowest group mean body weight as % change from Day 1, — indicates no decrease in mean body weight was observed): −0.4% Day 2
MTV (n) Day 28 ([5]; median tumor volume, 0.83 mg/kg po, Day 28): 896 (9) mm^3
Deaths NTR ([5]; non-treatment-related deaths, 0.83 mg/kg po): 1
Regressions CR ([5]; number of complete regressions, 0.83 mg/kg po): 0
Regressions PR ([5]; number of partial regressions, 0.83 mg/kg po): 0
% TGI ([5]; percent tumor growth inhibition compared to Group 1 (vehicle), Day 28, 0.83 mg/kg po): 4%
Deaths TR ([5]; treatment-related deaths, 0.83 mg/kg po): 0
Regressions TFS ([5]; tumor free survivors at end of study, 0.83 mg/kg po): 0
blood 17β-estradiol reduction by ovariectomy (ovariectomy (OVX) rats [6]; OVX rats): quite recovered
Estradiol (ovariectomy (OVX) rats [6]; serum 17β-estradiol, 12 weeks after ovariectomy, mean ± SD, 5 rats): 4.217 ± 0.247^a pg/ml
bone growth marker ALP (ovariectomy (OVX) rats [7]; OVX rats, serum): recovered to a normal level
ALP (ovariectomy (OVX) rats [7]; [9]): 108.2 ± 20.7 IU/l
Albumin (ovariectomy (OVX) rats [7]; [9]): 2.7 ± 0.1 g/dL
BUN (ovariectomy (OVX) rats [7]; [9]): 9.2 ± 2.4 mg/dL
GOT (ovariectomy (OVX) rats [7]; [9]): 148.0 ± 30.4 IU/l
GPT (ovariectomy (OVX) rats [7]; [9]): 22.4 ± 4.0 IU/l
Glucose (ovariectomy (OVX) rats [7]; [9]): 112.4 ± 7.7 mg/dL
HDL (ovariectomy (OVX) rats [7]; [9]): 23.8 ± 5.2 mg/dL
LDL-C (ovariectomy (OVX) rats [7]; [9]): 8.0 ± 5.2 mg/dL
Phosphorus (ovariectomy (OVX) rats [7]; [9]): 4.1 ± 0.6 mg/dL
TC (ovariectomy (OVX) rats [7]; [9]): 73.0 ± 17.3 mg/dL
TG (ovariectomy (OVX) rats [7]; [9]): 20.6 ± 7.7 mg/dL
TP (ovariectomy (OVX) rats [7]; [9]): 4.7 ± 0.2
calcium (ovariectomy (OVX) rats [7]; [9]): 6.7 ± 0.4 mg/dL
